Laboratory results from patent US20230391760A1, “HETEROCYCLIC GLP-1 AGONISTS” (Gasherbrum Bio, Inc., priority 2020, published 2023).

Target: GLP-1 Receptor (Homo sapiens, UniProt P43220)
Assay: GLP-1R agonist cAMP stimulation assay (HEK293/GLP1R/CRE-LUC cells, cAMP dynamic 2 Kit)
Type: cell-based
Conditions: HEK293/CRE-Luc cell line stably expressing the GLP-1 Receptor, 30 min at 37° C.
In short: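 cAMP measured by HTRF competition (d2-labelled cAMP with cryptate antibody, 1 h, room temperature, protected from light). Before that, GLP1R/CRE-Luc HEK293 cells (1000/well) were exposed for 30 min at 37 °C to half-log compound dilutions in DPBS containing IBMX 0.5 mM and BSA 0.1%.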

Sequence of GLP-1 Receptor (P43220 24-463, species assumed): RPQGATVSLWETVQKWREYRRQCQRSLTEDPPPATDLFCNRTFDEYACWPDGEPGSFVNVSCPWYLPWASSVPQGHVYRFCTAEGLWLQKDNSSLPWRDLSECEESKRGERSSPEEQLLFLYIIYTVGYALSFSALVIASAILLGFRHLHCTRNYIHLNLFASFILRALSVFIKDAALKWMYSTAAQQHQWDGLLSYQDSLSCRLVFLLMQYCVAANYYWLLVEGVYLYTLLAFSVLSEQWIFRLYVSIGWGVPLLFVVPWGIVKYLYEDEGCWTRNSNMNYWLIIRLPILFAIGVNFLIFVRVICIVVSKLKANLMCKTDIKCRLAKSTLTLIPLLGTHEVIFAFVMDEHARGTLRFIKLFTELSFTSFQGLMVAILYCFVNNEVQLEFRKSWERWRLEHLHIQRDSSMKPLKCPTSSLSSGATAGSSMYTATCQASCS

SMILES | EC50 [nM]
CC(=O)Nc1ccc2c(c1)nc(CN1CCC(c3cccc4c3OC(C)(c3ccc(Cl)cc3F)O4)CC1)n2C[C@@H]1CCO1 (stereo partly drawn) [Compound 240a, N-(2-((4-(2-(4-chloro-2-fluorophenyl)-2-methylbenzo[d][1,3]dioxol-4-yl)piperidin-1-yl)methyl)-1-(((S)-oxetan-2-yl)methyl)-1H-benzo[d]imidazol-5-yl)acetamide] | 1.1
C[C@]1(c2ccc(Cl)cc2F)Oc2cccc(C3CCN(Cc4nc5cc(-c6nnc(C7CC7)[nH]6)ncc5n4C[C@@H]4CCO4)CC3)c2O1 [Compound 281a, 4-[(2S)-2-(4-chloro-2-fluorophenyl)-2-methyl-2H-1,3-benzodioxol-4-yl]-1-{[6-(5-cyclopropyl-4H-1,2,4-triazol-3-yl)-3-{[(2S)-oxetan-2-yl]methyl}-3H-imidazo[4,5-c]pyridin-2-yl]methyl}piperidine] | 0.023
O=C(Nc1ccc2c(c1)nc(CN1CCC(c3cccc(OCc4ccc(Cl)cc4F)n3)CC1)n2C[C@@H]1CCO1)c1ccccc1 [Compound 166a, N-{2-[(4-{6-[(4-chloro-2-fluorophenyl)methoxy]pyridin-2-yl}piperidin-1-yl)methyl]-1-{[(2S)-oxetan-2-yl]methyl}-1H-1,3-benzodiazol-5-yl}benzamide] | 0.14
CO[C@@H](C)Cn1c(CN2CCC(c3cccc4c3O[C@@](C)(c3ccc(Cl)cc3F)O4)CC2)nc2cc(-c3nnc(C(F)(F)F)[nH]3)ncc21 [Compound 420a, 4-[(2S)-2-(4-chloro-2-fluorophenyl)-2-methyl-2H-1,3-benzodioxol-4-yl]-1-({3-[(2S)-2-methoxypropyl]-6-[5-(trifluoromethyl)-4H-1,2,4-triazol-3-yl]-3H-imidazo[4,5-c]pyridin-2-yl}methyl)piperidine] | 0.21
C[C@]1(c2ccc(Cl)cc2F)Oc2cccc(C3CCN(Cc4nc5cc(-c6nnc(C(F)(F)F)[nH]6)nnc5n4C[C@H]4CCOC4)CC3)c2O1 [Compound 475a, 4-[(2S)-2-(4-chloro-2-fluorophenyl)-2-methyl-2H-1,3-benzodioxol-4-yl]-1-[(7-{[(3R)-oxolan-3-yl]methyl}-3-[5-(trifluoromethyl)-4H-1,2,4-triazol-3-yl]-7H-imidazo[4,5-c]pyridazin-6-yl)methyl]piperidine] | 0.41
O=C(Nc1ccc2c(c1)nc(CN1CCC(c3cccc(OCc4ccc(Cl)cc4F)n3)CC1)n2C[C@@H]1CCO1)c1cccnc1 [Compound 168a, N-{2-[(4-{6-[(4-chloro-2-fluorophenyl)methoxy]pyridin-2-yl}piperidin-1-yl)methyl]-1-{[(2S)-oxetan-2-yl]methyl}-1H-1,3-benzodiazol-5-yl}pyridine-3-carboxamide] | 0.058
CCc1ccc(C(=O)Nc2ccc3c(c2)nc(CN2CCC(c4cccc(OCc5ccc(Cl)cc5F)n4)CC2)n3C[C@@H]2CCO2)cn1 [Compound 174a, N-{2-[(4-{6-[(4-chloro-2-fluorophenyl)methoxy]pyridin-2-yl}piperidin-1-yl)methyl]-1-{[(2S)-oxetan-2-yl]methyl}-1H-1,3-benzodiazol-5-yl}-6-ethylpyridine-3-carboxamide] | 0.56
N#Cc1ccc(COc2cccc(C3=CCN(Cc4nc5cc(-c6noc(=O)[nH]6)cnc5n4C[C@@H]4CCO4)CC3)n2)c(F)c1 [Compound 322a, 3-fluoro-4-[({1′-[(3-{[(2S)-oxetan-2-yl]methyl}-6-(5-oxo-4,5-dihydro-1,2,4-oxadiazol-3-yl)-3H-imidazo[4,5-b]pyridin-2-yl)methyl]-1′,2′,3′,6′-tetrahydro-[2,4′-bipyridin]-6-yl}oxy)methyl]benzonitrile] | 0.078
N#Cc1ccc(COc2cc(C3CCN(Cc4nc5cc(-c6nnc(C(F)(F)F)[nH]6)nnc5n4C[C@@H]4CCO4)CC3)ccc2F)c(F)c1 [Compound 521a, 3-fluoro-4-[(2-fluoro-5-{1-[(7-{[(2S)-oxetan-2-yl]methyl}-3-[5-(trifluoromethyl)-4H-1,2,4-triazol-3-yl]-7H-imidazo[4,5-c]pyridazin-6-yl)methyl]piperidin-4-yl}phenoxy)methyl]benzonitrile] | 0.51
O=c1[nH]c(-c2cnc3c(c2)nc(CN2CC=C(c4cccc(OCc5ccc(Cl)cc5F)c4)CC2)n3C[C@@H]2CCO2)no1 [Compound 320a, 3-{2-[(4-{3-[(4-chloro-2-fluorophenyl)methoxy]phenyl}-1,2,3,6-tetrahydropyridin-1-yl)methyl]-3-{[(2S)-oxetan-2-yl]methyl}-3H-imidazo[4,5-b]pyridin-6-yl}-4,5-dihydro-1,2,4-oxadiazol-5-one] | 6.8
CC1(c2ccc(Cl)cc2F)Oc2cccc(C3CCN(Cc4nc5cc(-c6noc(=O)[nH]6)c(F)cc5n4C[C@@H]4CCO4)CC3)c2O1 (stereo partly drawn) [Compound 222a, 3-[2-({4-[2-(4-chloro-2-fluorophenyl)-2-methyl-2H-1,3-benzodioxol-4-yl]piperidin-1-yl}methyl)-6-fluoro-1-{[(2S)-oxetan-2-yl]methyl}-1H-1,3-benzodiazol-5-yl]-4,5-dihydro-1,2,4-oxadiazol-5-one] | 0.55
O=C(Nc1ccc2c(c1)nc(CN1CCC(c3cccc(OCc4ccc(Cl)cc4F)n3)CC1)n2C[C@@H]1CCO1)C1CCOCC1 [Compound 153a, N-{2-[(4-{6-[(4-chloro-2-fluorophenyl)methoxy]pyridin-2-yl}piperidin-1-yl)methyl]-1-{[(2S)-oxetan-2-yl]methyl}-1H-1,3-benzodiazol-5-yl}oxane-4-carboxamide] | 0.3
O=C(Cc1ccccc1)Nc1ccc2c(c1)nc(CN1CCC(c3cccc(OCc4ccc(Cl)cc4F)n3)CC1)n2C[C@@H]1CCO1 [Compound 130a, N-{2-[(4-{6-[(4-chloro-2-fluorophenyl)methoxy]pyridin-2-yl}piperidin-1-yl)methyl]-1-{[(2S)-oxetan-2-yl]methyl}-1H-1,3-benzodiazol-5-yl}-2-phenylacetamide] | 5.1
Cc1nnc(-c2cc3nc(CN4CCC(c5cccc6c5OC(C)(c5ccc(Cl)cn5)O6)CC4)n(C[C@@H]4CCO4)c3cn2)[nH]1 (stereo partly drawn) [Compound 267a, 5-chloro-2-[2-methyl-4-(1-{[6-(5-methyl-4H-1,2,4-triazol-3-yl)-3-{[(2S)-oxetan-2-yl]methyl}-3H-imidazo[4,5-c]pyridin-2-yl]methyl}piperidin-4-yl)-2H-1,3-benzodioxol-2-yl]pyridine] | 0.051
CC1(c2ccc(Cl)cc2F)Oc2cccc(C3CCN(Cc4nc5cc(-c6cn(CCO)nn6)ccc5n4C[C@@H]4CCO4)CC3)c2O1 (stereo partly drawn) [Compound 228a, 2-{4-[2-({4-[2-(4-chloro-2-fluorophenyl)-2-methyl-2H-1,3-benzodioxol-4-yl]piperidin-1-yl}methyl)-1-{[(2S)-oxetan-2-yl]methyl}-1H-1,3-benzodiazol-5-yl]-1H-1,2,3-triazol-1-yl}ethan-1-ol] | 0.19
Fc1cc(Cl)ccc1COc1cc(N2CCN(Cc3nc4cc(-c5nnc(C(F)(F)F)[nH]5)nnc4n3C[C@@H]3CCO3)CC2)ccc1F [Compound 483a, 1-{3-[(4-chloro-2-fluorophenyl)methoxy]-4-fluorophenyl}-4-[(7-{[(2S)-oxetan-2-yl]methyl}-3-[5-(trifluoromethyl)-4H-1,2,4-triazol-3-yl]-7H-imidazo[4,5-c]pyridazin-6-yl)methyl]piperazine] | 0.51
C[C@]1(c2ccc(Cl)cc2F)Oc2cccc(C3CCN(Cc4nc5cc(-c6noc(=O)[nH]6)cnc5n4CC4(C#N)CC4)CC3)c2O1 [Compound 334a, 1-{[2-({4-[(2S)-2-(4-chloro-2-fluorophenyl)-2-methyl-2H-1,3-benzodioxol-4-yl]piperidin-1-yl}methyl)-6-(5-oxo-4,5-dihydro-1,2,4-oxadiazol-3-yl)-3H-imidazo[4,5-b]pyridin-3-yl]methyl}cyclopropane-1-carbonitrile] | 0.25
Cc1nnc(-c2cc3nc(CN4CCC(c5cccc6c5OC[C@@H](c5ccc(Cl)cc5)O6)CC4)n(C[C@@H]4CCO4)c3cn2)[nH]1 [Compound 424a, 4-[(2R)-2-(4-chlorophenyl)-2,3-dihydro-1,4-benzodioxin-5-yl]-1-{[6-(5-methyl-4H-1,2,4-triazol-3-yl)-3-{[(2S)-oxetan-2-yl]methyl}-3H-imidazo[4,5-c]pyridin-2-yl]methyl}piperidine] | 0.13
CO[C@H](C)Cn1c(CN2CCC(c3cccc4c3OC(C)(c3ccc(Cl)cn3)O4)CC2)nc2cc(-c3nnc(C(F)(F)F)[nH]3)ncc21 (stereo partly drawn) [Compound 428a, 5-chloro-2-{4-[1-({3-[(2R)-2-methoxypropyl]-6-[5-(trifluoromethyl)-4H-1,2,4-triazol-3-yl]-3H-imidazo[4,5-c]pyridin-2-yl}methyl)piperidin-4-yl]-2-methyl-2H-1,3-benzodioxol-2-yl}pyridine] | 0.36
C[C@]1(c2ccc(Cl)cn2)Oc2cccc(C3CCN(Cc4nc5cc(-c6nnn[nH]6)ncc5n4C[C@@H]4CCO4)CC3)c2O1 [Compound 449a, 5-chloro-2-[(2S)-2-methyl-4-{1-[(3-{[(2S)-oxetan-2-yl]methyl}-6-(1H-1,2,3,4-tetrazol-5-yl)-3H-imidazo[4,5-c]pyridin-2-yl)methyl]piperidin-4-yl}-2H-1,3-benzodioxol-2-yl]pyridine] | 0.016
C[C@]1(c2ccc(Cl)cc2F)Oc2cccc(C3CCN(Cc4nc5cc(-c6nnc(C(F)(F)F)[nH]6)ncc5n4C[C@@H]4CCO4)CC3)c2O1 [Compound 366a, 4-[(2S)-2-(4-chloro-2-fluorophenyl)-2-methyl-2H-1,3-benzodioxol-4-yl]-1-[(3-{[(2S)-oxetan-2-yl]methyl}-6-[5-(trifluoromethyl)-4H-1,2,4-triazol-3-yl]-3H-imidazo[4,5-c]pyridin-2-yl)methyl]piperidine] | 0.012
C[C@H]1CN(c2ccc(F)c(OCc3ccc(Cl)cc3F)c2)CCN1Cc1nc2cc(-c3nnc(C(F)(F)F)[nH]3)ncc2n1C[C@@H]1CCO1 [Compound 479a, (2S)-4-{3-[(4-chloro-2-fluorophenyl)methoxy]-4-fluorophenyl}-2-methyl-1-[(3-{[(2S)-oxetan-2-yl]methyl}-6-[5-(trifluoromethyl)-4H-1,2,4-triazol-3-yl]-3H-imidazo[4,5-c]pyridin-2-yl)methyl]piperazine] | 0.1
